Data taken from patent US10028931B2, “Synergistic compositions for treating microbial infections” (UNIVERSITY OF ROCHESTER, priority 2014, dated 2018).
In brackets after ≈: the same amount, converted by molar mass. Where two headings read alike, the source gives them in different places.

Experiments:
[1] = test system: Staphylococcus aureus strain UAMS-1; assay: Antimicrobial susceptibility testing (MIC, broth microdilution); format: cell-based; settings: S. aureus UAMS-1, Mueller Hinton broth, 37° C.
Description: The RNase P inhibitors described herein were tested for antimicrobial activity toward Staphylococcus aureus strain UAMS-1. Individual wells of a 96-well microtiter plate were inoculated with ˜1×10^5 colony-forming units (CFU) of the indicated organism, containing two-fold increasing concentrations (from 0 to 256 μg mL^−1) of the indicated antibiotic or putative RnpA inhibitor, and incubated at 37° C. for 18 hours in Mueller Hinton broth. The MIC was defined as the lowest concentration of antibiotic in which there was no visible bacterial growth in the wells. Minimum bactericidal concentration testing was performed by enumerating the bacterial cells in each of the wells containing treatments at and above the MIC.

[2] = target: T1, S. aureus RNase P (RnpA+rnpB) (Staphylococcus aureus, UniProt P0A0H5); assay: RNase P activity assay (precursor tRNA processing); format: biochemical; settings: ptRNATyr processing, gel densitometry; read-out: RNase P IC50
T1 sequence (P0A0H5 1-117): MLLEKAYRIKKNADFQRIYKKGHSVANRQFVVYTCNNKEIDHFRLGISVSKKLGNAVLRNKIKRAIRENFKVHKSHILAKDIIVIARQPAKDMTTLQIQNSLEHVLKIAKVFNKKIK
Description: The RNase P inhibitors described herein were tested for activity toward RNase P. S. aureus RNase P activity assays were performed in low salt buffer (50 mM Tris-HCl pH 8.0, 5 mM MgCl2) or in high salt buffer (50 mM Tris-HCl pH 8.0, 100 mM MgCl2, 800 mM NH4Cl). For all reactions, ptRNATyr, tRNATyr, or rnpB RNA species were first denatured by heating to 95° C. for 3 minutes, and then slowly cooling the mixtures to room temperature. RNase P was reconstituted by mixing an equal molar ratio of RnpB and RnpA for 15 min at 37° C. Precursor tRNA processing reactions (20 μL) were performed by mixing 1.25 pmol RNase P (RnpA+rnpB), RnpA, or rnpB with an equal volume of 2× low salt buffer or 2× high salt buffer and 10 pmol ptRNATyr. Mixtures were incubated for 15 min at 37° C. Reactions were stopped by adding 20 μL 2×RNA loading dye (95% formamide, 0.025% SDS, 0.025% bromophenol blue, 0.025% xylene cyanol FF, 0.5 mM EDTA), and 30 μL of each sample was electrophoresed in a 7 M urea/8% polyacrylamide gel and was then stained with ethidium bromide (0.5 μg/ml). Where indicated, reactions were repeated in the presence of the indicated amount of putative RnpA inhibitors or dimethyl sulfoxide (DMSO). A FluorChem 5500 imaging system was used to visualize the RNA, and the relative abundance of the mature tRNATyr band in the positive control (RNase P+DMSO) or in samples containing test compounds was measured using Image J densitometry software (NIH). The percent RNase P activity was then calculated using the following calculation: (test compound tRNATyr signal/positive control tRNATyr signal)*100.

[3] = target: T2, RnpA (Staphylococcus aureus, UniProt P0A0H5); assay: RnpA mRNA degradation activity assay; format: biochemical
T2 sequence (P0A0H5 1-117): T1 sequence (P0A0H5 1-117)
Description: The RNase P inhibitors described herein were tested for activity toward RnpA mRNA degradation activity. Either 1 μg of total S. aureus RNA or 1 pmol of in vitro synthesized spa mRNA was incubated with 20 pmol RnpA at 37° C. for 15 to 30 min in a reaction buffer (50 mM Tris-HCl pH 8.0, 2 mM NaCl, 2 mM MgCl2) in the absence or presence of the indicated compound. Reactions were stopped by adding an equal volume of 2×RNA loading dye (95% formamide, 0.025% SDS, 0.025% bromophenol blue, 0.025% xylene cyanol FF, 0.5 mM EDTA), run on a denaturing 1.0% agarose-0.66 M formaldehyde gel and stained with ethidium bromide. RNA substrates and corresponding degradation products were visualized using a FluorChem 5500 system (Alpha Innotech; San Leandro, Calif.). The inhibitory effects of the test compounds were measured using Image J densitometry software (National Institutes of Health; Bethesda, Md.) to quantify the signal intensity of the RNA band(s) in the negative control (RNA alone), positive control (RnpA+RNA+DMSO), and experimental samples (RnpA+RNA+test compound). The percent enzyme inhibition of test compounds was calculated using the following equation: Percent inhibition=[(experimental signal-positive control)/(negative control signal-positive control signal)]*100.

[4] = test system: S. aureus strain UAMS-1; assay: Fractional Inhibitory Concentration testing with mupirocin; format: cell-based; settings: combined with mupirocin, S. aureus UAMS-1, Mueller Hinton broth, 18 hours; synergistic FIC≤0.5
Description: The RNase P inhibitors described herein were tested for Fractional Inhibitory Concentration (FIC) in the presence of mupirocin. FIC testing was performed to determine the combined effects of mupirocin and the RnpA inhibitors as described herein. Individual wells of a 96-well microtiter plate were inoculated with 1×10^5 CFU of S. aureus strain UAMS-1 in a Mueller Hinton broth. Each row of the plate contained increasing concentrations of RNPA1000 or RNPA2000 (two-fold increments; 0, 0.004, 0.008, 0.016, 0.03, 0.06, 0.125, 0.25, 0.5, 1, 2, or 4×MIC), whereas each column contained increasing concentrations of the indicated antibiotic (two-fold increments; 0, 0.06, 0.125, 0.25, 0.5, 1, 2, or 4×MIC). Plates were incubated for 18 hours at 37° C., and growth was detected by the unaided eye. The FIC was determined using the following formula: (MIC of Drug A in Combination/MIC of Drug A Alone)+(MIC of Drug B in Combination/MIC of Drug B Alone)=FIC. A synergistic interaction was defined as an FIC value≤0.5, no interaction as an FIC of 0.5-4, or an antagonistic interaction FIC>4.

[5] = Staphylococcus aureus, UAMS1, 18 h, read-out: MIC
[6] = RnpA mRNA degradation, gel densitometry, read-out: RnpA IC50

SMILES | MIC [1, 5] [µg/mL] | IC50 [2] [µM] | IC50 [3, 6] [µM] | FIC with Mupirocin [4] | IC50 [3] [µM] | MIC ([1]; 18 hours) [µg/mL]
CC(C)c1ccc(OCC(=O)NNC(=O)/C=C/c2cc3ccccc3o2)cc1 [MC-190048] | > 256 | < 50 | < 50 | 0.5625 |  | 
CC(C)c1ccc(OCC(=O)NNC(=S)NC(=O)/C=C/c2cc3ccccc3o2)cc1 [MC-190047] | 64 (≈ 146 µM) | 26 | 30 | 0.625 |  | 
CC(C)c1ccc(OCC(=O)NNC(=S)NC(=O)c2cc3ccccc3o2)cc1 [MC-190031] | 32 (≈ 77.8 µM) | 1 | 60 | 0.25 |  | 
COc1ccccc1C(=O)NNC(=O)COc1ccc(C(C)C)cc1 [MC-190032] | > 128 | 75 | > 500 | 0.75 |  | 
O=C(COc1ccc(Cl)cc1Br)NNC(=S)NC(=O)c1ccco1 [ST5525958] | 32 (≈ 74 µM) | 125 | > 500 | 0.75 |  | 
O=C(COc1ccccc1)NNC(=S)NC(=O)c1ccco1 [MC-190079] | > 128 |  |  | 0.75 |  | 
CCOc1ccc(OCC(=O)NNC(=S)NC(=O)c2ccco2)cc1 [MC-190071] | 256 (≈ 704 µM) | > 500 | > 500 | 0.375 |  | 
CC(C)c1ccc(/C=C/C(=O)NNC(=S)NC(=O)c2ccco2)cc1 [MC-190078] | 64 (≈ 179 µM) |  |  | 0.625 |  | 
Cc1ccc(C(=O)NC(=S)NNC(=O)COc2ccc(C(C)C)cc2)o1 [MC-190044] | 32 (≈ 85.2 µM) | 105 | 30 | 0.49 |  | 
Cc1cc(C)cc(OCC(=O)NNC(=S)NC(=O)C2CC2)c1 [ST5523339] | 16 (≈ 49.8 µM) |  | > 500 | 1 |  | 
CC(C)c1ccc(OCC(=O)NNC(=S)NC(=O)c2cc3cc(Cl)ccc3[nH]2)cc1 [MC-190064] | 256 (≈ 575 µM) | 100 |  | 0.53 | > 500 | 
CC(C)c1ccccc1OCC(=O)NNC(=S)NC(=O)c1ccccc1OCCOc1ccccc1 [ST5528880] | > 128 | 380 | > 500 | 0.56 |  | 
Cc1ccoc1C(=O)NNC(=O)COc1ccc(C(C)C)cc1 [MC-190040] | > 256 | 230 | 480 | 0.625 |  | 
Cc1ccc(C(C)C)c(OCC(=O)NNC(=S)NC(=O)c2ccccc2OCCOc2ccccc2)c1 [ST5528960] | > 128 | > 500 | 40 | 0.56 |  | 
O=C(NNC(=S)NC(=O)c1ccco1)c1ccc(F)cc1 [ST5703018] | 64 (≈ 208 µM) | > 500 | > 500 | 0.625 |  | 
CC(C)c1ccc(OCC(=O)NNC(=S)NC(=O)c2nc3ccccc3[nH]2)cc1 [MC-190052] | 128 (≈ 311 µM) | 90 | 150 | 0.56 |  | 
CCCOc1ccccc1C(=O)NNC(=S)NC(=O)c1ccco1 [ST5528488] | 4 (≈ 11.5 µM) | 95 | 430 | 0.5 |  | 
O=C(/C=C/c1ccccc1)NNC(=S)NC(=O)c1ccco1 [MC-190074] | 64 (≈ 203 µM) |  |  | 0.625 |  | 
CC(C)c1ccc(OCC(=O)NNC(=S)NC(=O)C2CC2)cc1 [ST5523314] | 8 (≈ 23.9 µM) | > 500 | > 500 | 1 |  | 
CCOc1ccccc1C(=O)NNC(=S)NC(=O)c1ccco1 [MC-190067] | 8 to 16 (≈ 24 to 48 µM) | > 500 | > 500 | 0.625 |  | 
CC(C)c1ccc(OCC(=O)NNC(=S)NC(=O)c2cc3cc(F)ccc3[nH]2)cc1 [MC-190062] | 64 (≈ 149 µM) |  |  | 0.56 |  | 
CC(C)c1ccc(OCC(=O)NNC(=S)NC(=O)c2ccc3ccccc3n2)cc1 [MC-190077] | > 128 |  |  | 0.53 |  | 
CC(C)c1ccc(OCC(=O)NNC(=S)NC(=O)c2ccno2)cc1 [MC-190037] | 32 (≈ 88.3 µM) | > 500 |  | 0.625 |  | 
Cc1ccc(C(=O)NNC(=S)NC(=O)c2ccco2)cc1 [MC-190073] |  |  |  | 0.75 |  | 64 (≈ 211 µM)
CC(C)c1ccc(OCC(=O)NNC(=S)NC(=O)c2cc3ccccc3n2C)cc1 [MC-190056] | 64 (≈ 151 µM) |  | 240 | 0.49 |  | 
CC(C)c1ccc(OCC(=O)NNC(=S)NC(=O)c2ccco2)c(Br)c1 [ST5524693] | 8 (≈ 18.2 µM) | 350 |  | 0.49 |  | 
CCCOc1ccc(OCC(=O)NNC(=S)NC(=O)c2ccco2)cc1 [MC-190072] | 128 (≈ 339 µM) |  |  | 0.625 |  | 
CC(C)c1ccc(OCC(=O)NNC(=S)NC(=O)c2cccc(-c3ccccc3)n2)cc1 [MC-190081] | > 128 |  |  | 0.56 |  | 
